Drawing on publication PMC11672547, “Combination of Coevolutionary Information and Supervised Learning Enables Generation of Cyclic Peptide Inhibitors with Enhanced Potency from a Small Data Set” (ACS Central Science, 2024), this text covers Ki for nine molecules.

Numbered stars: 1 amine (or outer) side, 2 acyl side, 3 side chain; on linkers, the order of the positions; unused ones are H or OH. Bridge positions count the residues as written; N and C are the ends. Peptide text beside a SMILES is read from it. TBMB = c1c(C[*:1])cc(C[*:3])cc1C[*:2]

The target of one assay is T1, murine uPA (muPA) (Mus musculus, UniProt P06869).
T1 construct: mouse uPA (MUPA-LMW,; purchased Molecular Innovations MUPA-LMW
T1 sequence (P06869 180-433 limits assumed): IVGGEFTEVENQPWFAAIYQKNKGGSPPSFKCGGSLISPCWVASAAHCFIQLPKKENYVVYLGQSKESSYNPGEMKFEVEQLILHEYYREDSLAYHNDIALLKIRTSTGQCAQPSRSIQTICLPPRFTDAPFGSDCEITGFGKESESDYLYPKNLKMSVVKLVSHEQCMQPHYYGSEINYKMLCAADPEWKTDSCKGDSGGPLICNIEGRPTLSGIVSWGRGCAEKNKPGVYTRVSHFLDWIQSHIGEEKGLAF
T1 sequence (P06869 157-178 partner limits assumed): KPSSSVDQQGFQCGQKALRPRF
The assay can be described thus: Specificity determination, residual protease activity (fluorogenic substrate). The format is biochemical. The conditions noted are these: 25 °C, pH 7.4, Z-Gly-Gly-Arg-AMC 50 μM. Here is the method:
5% v/v DMSO. Final concentrations of serine proteases were the following: human uPA (UPA-LMW, Molecular Innovations, Novi, MI, USA) 1.5 nM, mouse uPA (MUPA-LMW, Molecular Innovations, Novi, MI, USA) 12 nM, human tPA (HTPATC; Molecular Innovations, Novi, MI, USA) 7.5 nM, mouse tPA (MTPA, Molecular Innovations, Novi, MI, USA) 6 nM, human trypsin (HTRYP, Molecular Innovations, Novi, MI, USA) 0.05 nM, human plasmin (HPLM, Molecular Innovations, Novi, MI, USA) 1.5 nM, human plasma kallikrein (IHPKA, Innovative Research, Novi, MI, USA) 0.5 nM, human thrombin (IHT, Innovative Research, Novi, MI, USA) 10 nM, and human factor XIIa (IHFXIIa, Innovative Research, Novi, MI, USA) 6 nM. Two-fold dilutions of UK970 bicyclic peptide inhibitor were prepared ranging from 1 mM to 125 nM for all the proteases. For human uPA an extra two-fold UK970 inhibitor dilution experiment was performed by using inhibitor concentrations ranging from 2000 nM to 0.12 nM. For the determination of the Ki inhibitory constants, the following fluorogenic substrates were used at final concentration of 50 μM: Z-Gly-Gly-Arg-AMC (for human uPA, murine uPA, human tPA, murine tPA, human trypsin, human thrombin and human factor XIIa; Bachem, Bubendorf, Switzerland), Z-Phe-Arg-AMC (for human plasma kallikrein; Bachem, Bubendorf, Switzerland) and H-D-Val-Leu-Lys-AMC (for human plasmin; Bachem, Bubendorf, Switzerland). The initial velocities were monitored as changes in fluorescence intensity during 30 min on a Tecan microplate reader (Tecan infinite 200 pro, Tecan Trading AG, Switzerland) using black microfluor 96-well plate Nunc MicroWell (Thermo Fisher Scientific, Dreieich, Germany). The enzymatic reactions were performed at 25 °C under shacking with an excitation wavelength of 355 nm and an emission recording at 460 nm.
Apparent equilibrium constants Kiapps values were determined by non-linear regression analyses of Vi/V0 versus [I]0 using equation (2). The final Kis were subsequently determined by correcting for the competitive effect of the substrate [S]0 using equation (3). The kinetic constants Kms for the hydrolysis of fluorogenic substrate, catalysed by each protease, were determined by standard Michaelis-Menten equation. Values were determined using either OriginPro 8G software (OriginLab Corporation, Northamppton, MA, USA) or GraphPad Prism 8.0.0. software (GraphPad software, Inc., San Diego, California). […]
Usually Ki stands for a measure of affinity in units of concentration, obtained from inhibition or displacement. `CC(C)[C@@H]1NC(=O)CNC(=O)[C@@H]2CSCc3cc(cc(c3)CSC[C@@H](C(=O)NCC(N)=O)NC(=O)[C@H](CCC(=O)O)NC(=O)[C@H](CO)NC(=O)[C@@H]3CCCN3C(=O)[C@H](CC(=O)O)NC1=O)CSC[C@H](NC(=O)[C@H](C)N)C(=O)N[C@@H](CC(N)=O)C(=O)N[C@@H](CO)C(=O)N[C@@H](CCCCN)C(=O)N[C@@H](Cc1ccccc1)C(=O)N[C@@H](CO)C(=O)NCC(=O)N2` [UK978] (H-ACNSKFSGCGVDPSECG-NH2; linker 2-9-16 via TBMB) returned an inhibition constant Ki of 1700 nM.

A further assay deals with T2, human urokinase-type plasminogen activator (huPA) (Homo sapiens, UniProt P00749).
T2 construct: (UPA-LMW, Molecular Innovations, Novi, MI, USA) 1.5 nM; purchased Molecular Innovations UPA-LMW
The assay can be described thus: huPA inhibition, fluorogenic enzyme activity assay (Z-Gly-Gly-Arg-AMC), Ki by Cheng-Prusoff. The class given is biochemical. To be noted: 25 °C, pH 7.4, substrate 50 μM, mean ± S.E. of at least three measurements, read-out: Ki. The procedure: bicyclic peptides. The activity assay was performed by incubating […] huPA with 50 μM fluorogenic substrate Z-Gly-Gly-Arg-AMC (50 μM; Bachem, Bubendorf, Switzerland) and […]
NaCl, 10 mM MgCl2, 1mM CaCl2, 0.1% w/v BSA, 0.01% v/v Triton-X100 and 5% v/v DMSO.
The measurements were performed on a Tecan microplate reader (Tecan infinite 200 pro, Tecan Trading AG, Switzerland) using black microfluor 96-well plate Nunc MicroWell, (Thermo Fisher Scientific, Dreieich, Germany) The enzymatic reactions were performed at 25 °C for 30 min, under shacking with an excitation wavelength of 355 nm and an emission recording at 460 nm. The initial velocities were monitored as changes in fluorescence intensity. The sigmoidal curves were fitted to the data using the following non-linear regression equation for the inhibitory dose-response curves with variable slope (2): […]
where x is the peptide concentration, y is the residual percentage of protease activity and p is the hill slope. Half maximum inhibitory concentration (IC50) values were derived from the fitted curves from GraphPad Prism 8 8.0.0. software (GraphPad software, Inc., San Diego, California). The final Ki was subsequently determined using the Cheng-Prusoff equation (3): […]
where Km (115 μM) is the Michaelis constant for the hydrolysis of Z-Gly-Gly-Arg-AMC catalysed by huPA which has been determined by standard Michaelis-Menten equation.
Values were determined using either OriginPro 8G software (OriginLab Corporation, Northamppton, MA, USA) or GraphPad Prism 8.0.0. software (GraphPad software, Inc., San […]
Recombinant production of the catalytic domain of human urokinase-type […]
The low molecular weight (LMW) human urokinase-type plasminogen activator (huPA) comprising the truncated 23 amino acid peptide fragment of chain A (Lys136-Lys158 in […]
As to `CC(C)[C@@H]1NC(=O)[C@H](Cc2ccc(O)cc2)NC(=O)[C@H](CCCNC(=N)N)NC(=O)[C@H](CO)NC(=O)[C@@H](NC(=O)[C@H](C)N)CSCc2cc3cc(c2)CSC[C@@H](C(=O)NCC(N)=O)NC(=O)[C@@H]2CCCN2C(=O)CNC(=O)CNC(=O)[C@H](CCCNC(=N)N)NC(=O)CNC(=O)[C@H](CCCNC(=N)N)NC(=O)[C@H](CSC3)NC(=O)[C@H](CC(=O)O)NC(=O)[C@H](C(C)C)NC1=O` [UK968] (H-ACSRYVVDCRGRGGPCG-NH2; linker 2-9-16 via TBMB), the inhibition constant Ki worked out at 5.5 ± 0.4 nM. The same measure, in the same setting: for `CC(C)[C@@H]1NC(=O)[C@H](Cc2ccc(O)cc2)NC(=O)[C@H](CCCNC(=N)N)NC(=O)[C@H](CC(=O)O)NC(=O)[C@@H](NC(=O)[C@H](C)N)CSCc2cc3cc(c2)CSC[C@@H](C(=O)NCC(N)=O)NC(=O)[C@@H]2CCCN2C(=O)CNC(=O)CNC(=O)[C@H](CCCNC(=N)N)NC(=O)CNC(=O)[C@H](CCCNC(=N)N)NC(=O)[C@H](CSC3)NC(=O)[C@H](CC(=O)O)NC(=O)[C@H](C(C)C)NC1=O` [UK969] (H-ACDRYVVDCRGRGGPCG-NH2; linker 2-9-16 via TBMB) the value was 5.3 ± 0.2 nM; for `CC(C)[C@@H]1NC(=O)[C@H](Cc2c[nH]c3ccccc23)NC(=O)[C@H](CCCNC(=N)N)NC(=O)[C@H](CO)NC(=O)[C@@H](NC(=O)[C@H](C)N)CSCc2cc3cc(c2)CSC[C@@H](C(=O)NCC(N)=O)NC(=O)[C@@H]2CCCN2C(=O)CNC(=O)CNC(=O)[C@H](CCCNC(=N)N)NC(=O)CNC(=O)[C@H](CCCNC(=N)N)NC(=O)[C@H](CSC3)NC(=O)[C@H](CC(=O)O)NC(=O)[C@H]([C@@H](C)O)NC1=O` [UK972] (H-ACSRWVTDCRGRGGPCG-NH2; linker 2-9-16 via TBMB), 14.8 nM; for `CC(C)[C@@H]1NC(=O)[C@H](Cc2ccccc2)NC(=O)[C@H](CCCNC(=N)N)NC(=O)[C@H](CO)NC(=O)[C@@H](NC(=O)[C@H](C)N)CSCc2cc3cc(c2)CSC[C@@H](C(=O)NCC(N)=O)NC(=O)[C@@H]2CCCN2C(=O)CNC(=O)CNC(=O)[C@H](CCCNC(=N)N)NC(=O)CNC(=O)[C@H](CCCNC(=N)N)NC(=O)[C@H](CSC3)NC(=O)[C@H](CC(=O)O)NC(=O)[C@H]([C@@H](C)O)NC1=O` [UK973] (H-ACSRFVTDCRGRGGPCG-NH2; linker 2-9-16 via TBMB), 15.3 nM. On the same count and under the same terms, as for `CC(C)[C@@H]1NC(=O)CNC(=O)[C@@H]2CSCc3cc(cc(c3)CSC[C@@H](C(=O)NCC(N)=O)NC(=O)[C@H](CO)NC(=O)CNC(=O)[C@@H]3CCCN3C(=O)[C@H](CC(=O)O)NC1=O)CSC[C@H](NC(=O)[C@H](C)N)C(=O)N[C@@H](CC(N)=O)C(=O)N[C@@H](CO)C(=O)N[C@@H](CCCCN)C(=O)N[C@@H](Cc1ccccc1)C(=O)N[C@@H](CO)C(=O)NCC(=O)N2` [UK974] (H-ACNSKFSGCGVDPGSCG-NH2; linker 2-9-16 via TBMB), the figure is 363 nM; as for `CC(C)[C@@H]1NC(=O)CNC(=O)[C@@H]2CSCc3cc(cc(c3)CSC[C@@H](C(=O)NCC(N)=O)NC(=O)[C@H](CC(=O)O)NC(=O)CNC(=O)[C@@H]3CCCN3C(=O)[C@H](CC(=O)O)NC1=O)CSC[C@H](NC(=O)[C@H](C)N)C(=O)N[C@@H](CC(N)=O)C(=O)N[C@@H](CO)C(=O)N[C@@H](CCCCN)C(=O)N[C@@H](Cc1ccccc1)C(=O)N[C@@H](CO)C(=O)NCC(=O)N2` [UK975] (H-ACNSKFSGCGVDPGDCG-NH2; linker 2-9-16 via TBMB), 874 nM; as for `CC(C)[C@@H]1NC(=O)CNC(=O)[C@@H]2CSCc3cc(cc(c3)CSC[C@@H](C(=O)NCC(N)=O)NC(=O)[C@H](CC(=O)O)NC(=O)[C@H](CO)NC(=O)[C@@H]3CCCN3C(=O)[C@H](CC(=O)O)NC1=O)CSC[C@H](NC(=O)[C@H](C)N)C(=O)N[C@@H](CC(N)=O)C(=O)N[C@@H](CO)C(=O)N[C@@H](CCCCN)C(=O)N[C@@H](Cc1ccccc1)C(=O)N[C@@H](CO)C(=O)NCC(=O)N2` [UK976] (H-ACNSKFSGCGVDPSDCG-NH2; linker 2-9-16 via TBMB), 119 ± 0.9 nM. Same read-out and setting: as for `CC(C)[C@@H]1NC(=O)CNC(=O)[C@@H]2CSCc3cc(cc(c3)CSC[C@@H](C(=O)NCC(N)=O)NC(=O)[C@H](CCC(=O)O)NC(=O)CNC(=O)[C@@H]3CCCN3C(=O)[C@H](CC(=O)O)NC1=O)CSC[C@H](NC(=O)[C@H](C)N)C(=O)N[C@@H](CC(N)=O)C(=O)N[C@@H](CO)C(=O)N[C@@H](CCCCN)C(=O)N[C@@H](Cc1ccccc1)C(=O)N[C@@H](CO)C(=O)NCC(=O)N2` [UK977] (H-ACNSKFSGCGVDPGECG-NH2; linker 2-9-16 via TBMB), the figure is 157 ± 1.1 nM; as for `CC(C)[C@@H]1NC(=O)CNC(=O)[C@@H]2CSCc3cc(cc(c3)CSC[C@@H](C(=O)NCC(N)=O)NC(=O)[C@H](CCC(=O)O)NC(=O)[C@H](CO)NC(=O)[C@@H]3CCCN3C(=O)[C@H](CC(=O)O)NC1=O)CSC[C@H](NC(=O)[C@H](C)N)C(=O)N[C@@H](CC(N)=O)C(=O)N[C@@H](CO)C(=O)N[C@@H](CCCCN)C(=O)N[C@@H](Cc1ccccc1)C(=O)N[C@@H](CO)C(=O)NCC(=O)N2` [UK978] (H-ACNSKFSGCGVDPSECG-NH2; linker 2-9-16 via TBMB), 72 ± 0.7 nM.
